Experimental data published in US20160159774A1 (Celgene Avilomics Research, Inc., priority 2014, published 2016).

What was measured:
[1] = molecular target: T1, BTK in Ramos human Burkitt lymphoma cells (Homo sapiens, UniProt Q06187); assay: BTK Ramos cellular assay (BTK occupancy); type: cell-based; conditions: concentration producing 50% occupancy of BTK, 1 hour incubation with compound
T1 construct: Compounds of this invention were assayed in Ramos human Burkitt lymphoma cells; endogenous in cells; host or cells: Ramos human Burkitt lymphoma cells
T1 sequence (Q06187 whole entry): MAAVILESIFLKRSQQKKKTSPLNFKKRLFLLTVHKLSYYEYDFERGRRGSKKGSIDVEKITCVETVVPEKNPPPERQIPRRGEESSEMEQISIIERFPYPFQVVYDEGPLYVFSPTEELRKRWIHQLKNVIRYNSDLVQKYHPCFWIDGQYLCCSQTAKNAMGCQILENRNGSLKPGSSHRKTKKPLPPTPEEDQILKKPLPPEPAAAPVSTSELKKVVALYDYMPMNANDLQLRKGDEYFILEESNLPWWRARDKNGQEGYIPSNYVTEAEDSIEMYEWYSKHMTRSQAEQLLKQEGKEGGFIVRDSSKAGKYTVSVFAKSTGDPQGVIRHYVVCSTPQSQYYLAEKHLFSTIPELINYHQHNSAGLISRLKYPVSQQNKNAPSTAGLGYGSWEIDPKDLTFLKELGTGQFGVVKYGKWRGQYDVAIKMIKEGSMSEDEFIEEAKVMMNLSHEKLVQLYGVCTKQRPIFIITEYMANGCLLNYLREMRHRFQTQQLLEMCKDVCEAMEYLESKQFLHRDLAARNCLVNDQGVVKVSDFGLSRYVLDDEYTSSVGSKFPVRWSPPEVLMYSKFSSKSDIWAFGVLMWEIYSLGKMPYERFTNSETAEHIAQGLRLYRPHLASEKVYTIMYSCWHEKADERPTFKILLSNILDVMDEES
Description: BTK activity in Ramos cells, in the presence of a compound of the invention, can be measured by 3 different methods: 1) inhibition of autophosphorylation of BTK; 2) inhibition of phosphorylation of the immediate BTK surrogate PLCγ2; and 3) BTK occupancy. […] In this instance, BTK occupancy was chosen and is described below.
Compounds of this invention were assayed in Ramos human Burkitt lymphoma cells. Ramos cells were grown in suspension in T175 flasks, spun down, resuspended to a concentration of 2×10^6 cells per mL in serum-free media and incubated for 1 hour. Compound was added to Ramos cells to a final concentration of 500, 166.7, 55.6, 18.5, 6.2, 2.1, and 0.7 nM. Ramos cells were incubated with compound for 1 hour, washed with PBS and lysed in 1004 of BioRad lysis Buffer. Cell lysates were incubated with a biotinylated covalent probe (compound 1-215 disclosed in U.S. published application number 2010/0029610, incorporated by reference in its entirety) at a final concentration of 1 μM in a PBS, 0.05% Tween-20, 1% BSA solution for 1 h at room temperature. Standards and samples were transferred to a streptavidin-coated 96-well ELISA plate and mixed while shaking for 1 h at room temperature. The α-Btk antibody (BD 611116, 1:1000 dilution in PBS+0.05% Tween-20+0.5% BSA) was then added and incubated for 1 h at room temperature. After wash, goat α-mouse-HRP (1:5000 dilution in PBS+0.05% Tween-20+0.5% BSA) was added and incubated for 1 h at room temperature. The ELISA was developed with addition of tetramethyl benzidine (TMB) followed by Stop Solution and read at OD 450 nm. The standard curve (11.7-3000 pg/μL) was generated with human full-length recombinant Btk protein and plotted using a 4 parameter curve fit in Gen5 software. Uninhibited Btk detected from samples was normalized to μg total protein as determined by BCA protein analysis (Pierce Cat. 23225).
The results of this assay show the concentration of compound producing 50% occupancy of BTK. This level of occupancy empirically translates to a level of 50% inhibition of BTK activity (both as measured by autophosphorylation and by phosphorylation of PLCγ2). […] The compound numbers correspond to the compound numbers in the examples.

activated BTK enzyme = molecular target: T2, activated BTK enzyme (Homo sapiens, UniProt Q06187); assay: Omnia assay for potency assessment against BTK; type: biochemical; conditions: BTK inhibition assay; [BTK]=5 nM, [ATP]=40 μM, [Y5-Sox]=10 μM
T2 construct: purchased Life Technologies PV3363
T2 sequence (Q06187 whole entry): as above
From the text: Omnia Assay Protocol for Potency Assessment Against BTK
The protocol below describes an assay to measure potency of compounds against the activated BTK enzyme. The mechanics of the assay platform are best described by the vendor (Life Technologies, Carlsbad, Calif.) on their website at the following URLs: www.lifetechnologies.com/us/en/home/life-science/drug-discovery/target-and-lead-identification-and-validation/kinasebiology/kinase-activity-assays/omnia-kinase-assays/omnia-kinase-principle.html and tools.lifetechnologies.com/content/sfs/manuals/omnia_kinase_assay_man.pdf
Briefly, 10× stocks of BTK (PV3363) from Life Technologies, 1.13×ATP (AS00lA) and Sox conjugated peptide substrates, Y5-Sox, (KZN305l) were prepared in 1× kinase reaction buffer consisting of 20 mM Tris, pH 7.5, 5 mM MgCl2, 1 mM EGTA, 5 mM (3-glycerophosphate, 5% glycerol (10× stock, KB002A) and 0.2 mM DTT (DS00lA). 5 μL of each enzyme were pre-incubated in a Corning (#3574) 384-well, white, non-binding surface microtiter plate (Corning, N.Y.) for 30 min. at room temperature with a 0.5 μL volume of 50% DMSO or serially diluted compounds prepared in 50% DMSO. Kinase reactions were started with the addition of […] of the ATP/Tyr-Sox peptide substrate Y5 mix and monitored every 71 seconds for 60 minutes at λex360/λem485 in a Synergy4 plate reader from BioTek (Winooski, Vt.). At the conclusion of each assay, progress curves from each well were examined for linear reaction kinetics and fit statistics (R2, 95% confidence interval, absolute sum of squares). Initial velocity (0 minutes to ˜30 minutes) from each reaction was determined from the slope of a plot of relative fluorescence units vs time (minutes) and then plotted against inhibitor concentration to estimate IC50 from log [Inhibitor] vs Response, Variable Slope model in GraphPad Prism from GraphPad Software (San Diego, Calif.).
Reagent conditions for the assay are:
[BTK]=5 nM, [ATP]=40 μM, [Y5-Sox]=10 μM (ATP KMapp˜36 μM).
The compound numbers correspond to the compound numbers in the examples.

Structure (SMILES)	EC50 [1]	IC50 (activated BTK enzyme)
C#CCN1Cc2ccc(Nc3ncc(F)c(N[C@@H]4CCCN(C(=O)C=C)C4)n3)cc2C1 [Compound I-67, (R)-1-(3-((5-Fluoro-2-((2-(prop-2-yn-1-yl)isoindolin-5-yl)amino)pyrimidin-4-yl)amino)piperidin-1-yl)prop-2-en-1-one]	10 to 100 nM	< 10 nM
C=CC(=O)N1CC2(CC(Nc3nc(Nc4ccc5c(c4)CN(C)C5)ncc3F)C2)C1 [Compound I-26, 1-(6-((5-Fluoro-2-((2-methylisoindolin-5-yl)amino)pyrimidin-4-yl)amino)-2-azaspiro[3.3]heptan-2-yl)prop-2-en-1-one]	< 10 nM	< 10 nM
C=CC(=O)N1CCC[C@@H](Nc2nc(Nc3ccc4c(c3)C(=O)N(C)C4)ncc2F)C1 [Compound I-62]	101 to 1000 nM	< 10 nM
C=CC(=O)N1CCC[C@@H](Nc2nc(Nc3ccc4c(c3)CN(C3COC3)CC4)ncc2F)C1 [Compound I-35, (R)-1-(3-(5-Fluoro-2-(2-(oxetan-3-yl)-1,2,3,4-tetrahydroisoquinolin-7-ylamino)-pyrimidin-4-ylamino)piperidin-1-yl)prop-2-en-1-one]	< 10 nM	< 10 nM
C=CC(=O)N1CCC[C@@H](Nc2nc(Nc3ccc4c(c3)CCN(C(C)=O)C4)ncc2F)C1 [Compound I-30, (R)-1-(3-((2-((2-Acetyl-1,2,3,4-tetrahydroisoquinolin-6-yl)amino)-5-fluoro-pyrimidin-4-yl)amino)piperidin-1-yl)prop-2-en-1-one]	10 to 100 nM	< 10 nM
C=CC(=O)N1CCC[C@@H](Nc2nc(Nc3ccc4c(c3)CN(C3CCNCC3)C4)ncc2F)C1 [Compound I-5, (R)-1-(3-((5-fluoro-2-((2-(piperidin-4-yl)isoindolin-5-yl)amino)pyrimidin-4-yl)amino)piperidin-1-yl)prop-2-en-1-one]	101 to 1000 nM	< 10 nM
C=CC(=O)N1CCC[C@@H](Nc2nc(Nc3ccc4c(c3)CCN(C3COC3)C4)ncc2F)C1 [Compound I-31, (R)-1-(3-(5-Fluoro-2-(2-(oxetan-3-yl)-1,2,3,4-tetrahydroisoquinolin-6-ylamino)-pyrimidin-4-ylamino)piperidin-1-yl)prop-2-en-1-one]	< 10 nM	< 10 nM
C=CC(=O)N1CCC[C@@H](Nc2nc(Nc3ccc4c(c3)CCCN(C)C4)ncc2F)C1 [Compound I-38, (R)-1-(3-((5-Fluoro-2-((2-methyl-2,3,4,5-tetrahydro-1H-benzo[c]azepin-7-yl)amino)pyrimidin-4-yl)amino)piperidin-1-yl)prop-2-en-1-one]	< 10 nM	< 10 nM
C=CC(=O)N1CCC[C@@H](Nc2nc(Nc3ccc4c(c3)CN(CCOC)C4)ncc2F)C1 [Compound I-4, (R)-1-(3-((5-Fluoro-2-((2-(2-methoxyethyl)isoindolin-5-yl)amino)pyrimidin-4-yl)amino)piperidin-1-yl)prop-2-en-1-one]	10 to 100 nM	< 10 nM
C=CC(=O)N1CC2CC(Nc3nc(Nc4ccc5c(c4)CN(C)C5)ncc3F)C1C2 (centres unmarked) [Compound I-66, 1-(6-((5-fluoro-2-((2-methylisoindolin-5-yl)amino)pyrimidin-4-yl)amino)-2-azabicyclo[2.2.1]heptan-2-yl)prop-2-en-1-one]		101 to 1000 nM
C=CC(=O)N1CCC[C@@H](Nc2nc(Nc3ccc4c(c3)CN(C(C)C)C4)ncc2F)C1 [Compound I-17, (R)-1-(3-((5-Fluoro-2-((2-isopropylisoindolin-5-yl)amino)pyrimidin-4-yl)amino)piperidin-1-yl)prop-2-en-1-one]	< 10 nM	< 10 nM
C=CC(=O)N1CCC[C@@H](Nc2nc(Nc3ccc4c(c3)CN(C)CCC4)ncc2F)C1 [Compound I-55, (R)-1-(3-(5-Fluoro-2-(2-methyl-2,3,4,5-tetrahydro-1H-benzo[c]azepin-8-ylamino)pyrimidin-4-ylamino)piperidin-1-yl)prop-2-en-1-one]	10 to 100 nM	< 10 nM
C=CC(=O)N1CCC[C@@H](Nc2nc(Nc3ccc4c(c3)CCCN(C)C4=O)ncc2F)C1 [Compound I-52, (R)-7-((4-((1-Acryloylpiperidin-3-yl)amino)-5-fluoropyrimidin-2-yl)amino)-2-methyl-2,3,4,5-tetrahydro-1H-benzo[c]azepin-1-one]	10 to 100 nM	< 10 nM
C=CC(=O)N1CCC[C@@H](Nc2nc(Nc3ccc4c(c3)CN(C3CCN(C)CC3)C4)ncc2F)C1 [Compound I-7, (R)-1-(3-((5-Fluoro-2-((2-(1-methylpiperidin-4-yl)isoindolin-5-yl)amino)-pyrimidin-4-yl)amino)piperidin-1-yl)prop-2-en-1-one]	10 to 100 nM	< 10 nM
C=CC(=O)N1CCC[C@@H](Nc2nc(Nc3ccc4c(c3)CN(CC3CCN(C)CC3)C4)ncc2F)C1 [Compound I-8]	< 10 nM	< 10 nM
C=CC(=O)N1CCC[C@@H](Nc2nc(Nc3ccc4c(c3)CCCN(CC3COC3)C4)ncc2F)C1 [Compound I-50, (R)-1-(3-((5-Fluoro-2-((2-(oxetan-3-ylmethyl)-2,3,4,5-tetrahydro-1H-benzo[c]azepin-7-yl)amino)pyrimidin-4-yl)amino)piperidin-1-yl)prop-2-en-1-one]	10 to 100 nM	< 10 nM
C=CC(=O)N1CCC[C@@H](Nc2nc(Nc3cc(F)c4c(c3)CN(C)C4)ncc2F)C1 [Compound I-37, (R)-1-(3-(5-Fluoro-2-(7-fluoro-2-methylisoindolin-5-ylamino)pyrimidin-4-ylamino)piperidin-1-yl)prop-2-en-1-one]	101 to 1000 nM	< 10 nM
C=CC(=O)N1CCC[C@@H](Nc2nc(Nc3ccc4c(c3)C(=O)N(C)C4=O)ncc2F)C1 [Compound I-63, (R)-5-((4-((1-Acryloylpiperidin-3-yl)amino)-5-fluoropyrimidin-2-yl)amino)-2-methylisoindoline-1,3-dione]	10 to 100 nM	< 10 nM
C=CC(=O)N1CCC[C@@H](Nc2nc(Nc3ccc4c(c3)CN(C)C4)ncc2C(F)(F)F)C1 [Compound I-64, (R)-1-(3-((2-((2-Methylisoindolin-5-yl)amino)-5-(trifluoromethyl)pyrimidin-4-yl)amino)piperidin-1-yl)prop-2-en-1-one]	< 10 nM	< 10 nM
C=CC(=O)N1CCC[C@@H](Nc2nc(Nc3ccc4c(c3)CN(C)C4)ncc2F)C1 [Compound I-2, (R)-1-(3-((5-Fluoro-2-((2-methylisoindolin-5-yl)amino)pyrimidin-4-yl)amino)piperidin-1-yl)prop-2-en-1-one]	< 10 nM	< 10 nM
C=CC(=O)N1CCC[C@@H](Nc2nc(Nc3ccc4c(c3)CNC4)ncc2C(F)(F)F)C1 [Compound I-65, (R)-1-(3-((2-(Isoindolin-5-ylamino)-5-(trifluoromethyl)pyrimidin-4-yl)amino)piperidin-1-yl)prop-2-en-1-one]	< 10 nM	< 10 nM
